The values that follow come from patent publication US5998423A, “Methods for modulating melanin production” (Therasys, Inc., priority 1997, dated 1999).

In test [1] the test system is Mouse, Cloudman S91 Melanoma Cell line. Description: Stimulation of melanin synthesis in cell culture (melanin content, OD 475 nm). Type of test: cell-based. The settings on record: result in words; incubation 5-7 days at 37° C.; values only in FIG. 6. An excerpt: A Mouse, Cloudman S91 Melanoma Cell line (Clone M-3, ATCC CCL-53.1) was used. The cells were flown as monolayers. These cells multiply 7-8 fold in 7 days and are know to produce melanin in over 50% of the cells up to at least 33 passages. Horse serum, fetal Bovine serum, Penicillin-streptomycin and F-10 nutrient mixture were all obtained from Life Technologies (GIBCO, Grand Island, N.Y.). N^6 -Cyclopentyl-9-methyladenine (N-154) and C-102 (CPT) were obtained from RBI (Natick, Mass.). 1-Oleoyl-2-acetyl-rac-glycerol, activated charcoal, Triton X-100, phenyl methyl sulfonyl fluoride, theophylline, synthetic melanin and L-tyrosine-[Ring-3,5] were all obtained from Sigma Chemical Co. (St. Louis, Mo.). The culture medium used was Ham's F-10. The composition of the medium was as follows: Ham's F-10 Nutrient Mixture (82.5%), horse serum (15.0%), fetal bovine serum (2.5%), penecillin-streptomycin mixture (1.0%).
Cells were incubated with the indicated reagents (see FIG. 6) at 37° C. under 5% CO2 atmosphere for 5-7 days. At the time of harvest, exhausted medium was removed from flasks/wells and cells were treated with 1-5 mL of 0.25% trypsin for 2-3 minutes. […]
The pellet (from above extraction) was dissolved in 0.25 mL of 0.5 N NaOH and the optical density was measured at 475 nm. The melanin content was determined from a standard curve obtained by using a synthetic melanin.

For a further test, the system named is melanoma cell lines. The settings on record: cited from earlier work.
Another test has as its system adenylate cyclase. The settings on record: through activation of adenylate cyclase, thereby increasing cAMP levels; cited from earlier work. For orientation: Cyclic AMP is a second messenger, typically raised through Gs and lowered through Gi signalling.

Regarding `Cn1cnc2c(NC3CCCC3)ncnc21` [N^6 -Cyclopentyl-9-methyladenine], in test [1], the “stimulation of melanin synthesis” value was “stimulation of melanin synthesis”.

For `Cn1c(=O)c2[nH]cnc2n(C)c1=O` [Theophylline, theophylline], the stimulation of melanogenesis entry in the test on melanoma cell lines is “potent stimulator of melanogenesis”.

For α-MSH, in the test on adenylate cyclase, the melanin production result is “increase melanin production”.
